Assay results from ChEMBL document CHEMBL5352409, “Design, synthesis, and pharmacological evaluation of 2-(1-(1,3,4-thiadiazol-2-yl)piperidin-4-yl)ethan-1-ol analogs as novel glutaminase 1 inhibitors” (Eur J Med Chem, 2022).
pIC50: −log10 of the molar value.

Columns and labels:
[1] = target: T1, Glutaminase kidney isoform, mitochondrial (Homo sapiens, UniProt O94925); experiment: Inhibition of GLS1 (unknown origin)
T1 sequence (O94925 whole entry): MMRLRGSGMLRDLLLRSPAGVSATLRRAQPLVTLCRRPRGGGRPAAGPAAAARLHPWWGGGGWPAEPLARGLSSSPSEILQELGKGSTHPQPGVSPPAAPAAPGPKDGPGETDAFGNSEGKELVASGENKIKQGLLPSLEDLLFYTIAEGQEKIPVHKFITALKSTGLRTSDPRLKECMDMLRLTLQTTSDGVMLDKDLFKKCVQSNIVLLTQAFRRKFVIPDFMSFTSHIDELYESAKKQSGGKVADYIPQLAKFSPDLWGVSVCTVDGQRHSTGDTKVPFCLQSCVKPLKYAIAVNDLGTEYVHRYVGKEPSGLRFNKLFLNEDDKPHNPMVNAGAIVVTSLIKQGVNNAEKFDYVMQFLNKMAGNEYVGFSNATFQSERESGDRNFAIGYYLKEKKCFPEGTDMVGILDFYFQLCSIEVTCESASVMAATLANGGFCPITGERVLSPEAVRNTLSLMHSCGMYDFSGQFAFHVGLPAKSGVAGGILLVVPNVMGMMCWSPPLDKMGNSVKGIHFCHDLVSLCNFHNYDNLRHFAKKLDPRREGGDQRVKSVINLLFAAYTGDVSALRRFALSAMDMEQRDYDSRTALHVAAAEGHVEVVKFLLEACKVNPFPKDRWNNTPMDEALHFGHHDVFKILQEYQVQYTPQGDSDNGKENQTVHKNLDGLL

A549 = experiment: Antiproliferative activity against human A549 cells assessed as reduction in cell viability; type: functional, cell-based
HCT-116 = experiment: cells; conditions: Homo sapiens

| Compound | pIC50 [1] | pIC50 (A549) | pIC50 (HCT-116) |
| --- | --- | --- | --- |
| COCCNC(=O)c1ccc(CN2CCN(c3nnc(NC(=O)Cc4ccccc4)s3)CC2)cc1 | < 5.00 | < 5.00 | < 5.00 |
| CCN(CC)CCNC(=O)c1cccc(COCCC2CCN(c3nnc(NC(=O)Cc4ccccc4)s3)CC2)c1 | 6.21 | 5.12 | 5.04 |
| O=C(Cc1ccccc1)Nc1nnc(N2CCC(CCOCc3cccc(C(=O)NCC4CCN(Cc5cc(F)cc(F)c5)CC4)c3)CC2)s1 | 6.90 | 6.01 | 6.16 |
| CCCCN1CCC(CNC(=O)c2cccc(COCCC3CCN(c4nnc(NC(=O)Cc5ccccc5)s4)CC3)c2)CC1 | 6.80 | 5.81 | 5.97 |
| CN1CCN(c2cccc(C(=O)Nc3cccc(CN4CCN(c5nnc(NC(=O)Cc6ccccc6)s5)CC4)c3)c2)CC1 | 7.11 | 6.01 | 5.92 |
| C=CCCC(=O)N1CCC(CNC(=O)c2cccc(COCCC3CCN(c4nnc(NC(=O)Cc5ccccc5)s4)CC3)c2)CC1 | 6.46 | 5.45 | 5.39 |
| O=C(Cc1ccccc1)Nc1ccc(CN2CCN(c3nnc(NC(=O)Cc4ccccc4)s3)CC2)cc1 |  | < 5.00 | < 5.00 |
| O=C(Cc1ccccc1)Nc1nnc(N2CCN(Cc3ccc(C(=O)NCc4cccc(C(F)(F)F)c4)cc3)CC2)s1 | 6.60 | 5.73 | 5.83 |
| CCN(CC)CCNC(=O)c1ccc(CCc2nnc(NC(=O)Cc3ccccc3)s2)cc1 | < 5.00 | < 5.00 | < 5.00 |
| O=C(Cc1ccccc1)Nc1nnc(N2CCN(Cc3ccc(C(=O)N4CCC(CO)CC4)cc3)CC2)s1 | 6.44 | 5.39 | 5.41 |
| CC(C)N1CCC(CNC(=O)c2ccc(COCCC3CCN(c4nnc(NC(=O)Cc5ccccc5)s4)CC3)cc2)CC1 | 6.44 | 5.65 | 5.52 |
| CN1CCN(c2cccc(C(=O)Nc3ccc(CN4CCN(c5nnc(NC(=O)Cc6ccccc6)s5)CC4)cc3)c2)CC1 | 6.91 | 5.98 | 5.90 |
| CCN(CC)CCNC(=O)c1cccc(CN2CCN(c3nnc(NC(=O)Cc4ccccc4)s3)CC2)c1 | 6.46 | 5.62 | 5.83 |
| CN1CCC(CNC(=O)c2cccc(CN3CCN(c4nnc(NC(=O)Cc5ccccc5)s4)CC3)c2)CC1 | 6.36 | 5.40 | 5.81 |
| O=C(Cc1ccccc1)Nc1nnc(CCc2ccc(C(=O)NCCN3CCCC3)cc2)s1 | < 5.00 | < 5.00 | < 5.00 |
| CCCNC(=O)c1ccc(CCc2nnc(NC(=O)Cc3ccccc3)s2)cc1 | < 5.00 | < 5.00 | < 5.00 |
| O=C(Cc1ccccc1)Nc1nnc(N2CCC(OCc3ccc(C(=O)NCCN4CCCC4)cc3)CC2)s1 | 5.90 | 5.90 | 5.42 |
| O=C(Cc1ccccc1)Nc1nnc(N2CCN(Cc3ccc(C(=O)NCCc4ccc(F)cc4)cc3)CC2)s1 | 6.52 | 5.69 | 6.24 |
| CC(C)c1ccc(CNC(=O)c2cccc(CN3CCN(c4nnc(NC(=O)Cc5ccccc5)s4)CC3)c2)cc1 |  | < 5.00 | < 5.00 |
| CCN(CC)CCNC(=O)c1ccc(CN2CCN(c3nnc(NC(=O)Cc4ccccc4)s3)CC2)cc1 | 6.58 | 5.68 | 5.54 |
| CC(C)N1CCC(CNC(=O)c2cccc(COCCC3CCN(c4nnc(NC(=O)Cc5ccccc5)s4)CC3)c2)CC1 |  | < 5.00 | < 5.00 |
| O=C(Cc1ccccc1)Nc1nnc(N2CCN(Cc3ccc(C(=O)NCCNc4ccccc4)cc3)CC2)s1 | 6.97 | 5.91 | 5.96 |
| CCNCCNC(=O)c1ccc(CN2CCN(c3nnc(NC(=O)Cc4ccccc4)s3)CC2)cc1 | 6.66 | 5.65 | 5.89 |
| CCCNC(=O)c1ccc(COCCC2CCN(c3nnc(NC(=O)Cc4ccccc4)s3)CC2)cc1 | 6.38 | 5.46 | 5.54 |
| Cc1cccc(CN(C)C(=O)c2ccc(CN3CCN(c4nnc(NC(=O)Cc5ccccc5)s4)CC3)cc2)c1 | < 6.00 | < 5.00 | < 5.00 |
| CN1CCC(CNC(=O)c2ccc(COC3CCN(c4nnc(NC(=O)Cc5ccccc5)s4)CC3)cc2)CC1 | < 5.00 | < 5.00 | < 5.00 |

| Compound | pIC50 [1] | pIC50 (A549) | pIC50 (HCT-116) |
| --- | --- | --- | --- |
| CCN1CCC(NC(=O)c2ccc(COC3CCN(c4nnc(NC(=O)Cc5ccccc5)s4)CC3)cc2)CC1 | 5.59 | < 5.00 | < 5.00 |
| O=C(Cc1ccccc1)Nc1nnc(N2CCC(CCOCc3cccc(C(=O)N4CCN(c5cccc(F)c5)CC4)c3)CC2)s1 | 6.26 | 5.13 | 5.07 |
| O=C(Cc1ccccc1)Nc1nnc(N2CCN(Cc3ccc(C(=O)NC4CCCC4)cc3)CC2)s1 | 6.88 | 5.96 | 5.83 |
| CCCCNC(=O)c1ccc(COCC2CCN(c3nnc(NC(=O)Cc4ccccc4)s3)CC2)cc1 | 6.28 | 5.23 | 5.30 |
| CN1CCN(c2ccc(NC(=O)c3ccc(CN4CCN(c5nnc(NC(=O)Cc6ccccc6)s5)CC4)cc3)cc2)CC1 | 6.60 | 5.89 | 6.17 |
| Cc1ccccc1CN1CCC(CNC(=O)c2ccc(COCCC3CCN(c4nnc(NC(=O)Cc5ccccc5)s4)CC3)cc2)CC1 | 6.87 | 5.90 | 6.09 |
| O=C(Cc1ccccc1)Nc1nnc(N2CCN(Cc3ccc(C(=O)NCCN4CCCC4)cc3)CC2)s1 | 6.79 | 5.44 | 5.78 |
| O=C(Cc1ccccc1)Nc1nnc(N2CCC(CCOCc3cccc(C(=O)NCCN4CCCCC4)c3)CC2)s1 | 6.26 | 5.07 | 5.15 |
| O=C(Cc1ccccc1)Nc1nnc(CCc2ccc(C(=O)N3CCCCC3)cc2)s1 | < 5.00 | < 5.00 | < 5.00 |
| O=C(Cc1ccccc1)Nc1nnc(N2CCN(Cc3cccc(C(=O)NCCN4CCCCC4)c3)CC2)s1 | 6.67 | 5.69 | 5.78 |
| CCCCN1CCC(CNC(=O)c2ccc(COCCC3CCN(c4nnc(NC(=O)Cc5ccccc5)s4)CC3)cc2)CC1 | 6.92 | 5.89 | 6.04 |
| O=C(Cc1ccccc1)Nc1nnc(N2CCN(Cc3ccc(C(=O)NCCN4CCCCC4)cc3)CC2)s1 | 6.79 | 5.48 | 5.96 |
| O=C(Cc1ccccc1)Nc1nnc(N2CCN(Cc3cccc(C(=O)NCc4ccc(C(F)(F)F)cc4)c3)CC2)s1 |  | < 5.00 | < 5.00 |
| Cc1ccc(NC(=O)c2ccc(CN3CCN(c4nnc(NC(=O)Cc5ccccc5)s4)CC3)cc2)cc1 | 6.67 | 5.77 | 5.97 |
| O=C(Cc1ccccc1)Nc1nnc(N2CCN(Cc3cccc(C(=O)NCCc4ccc(F)cc4)c3)CC2)s1 |  | < 5.00 | < 5.00 |
| CN1CCN(c2ccc(C(=O)Nc3cccc(CN4CCN(c5nnc(NC(=O)Cc6ccccc6)s5)CC4)c3)cc2)CC1 | 7.05 | 5.98 | 5.82 |
| O=C(Cc1ccccc1)Nc1cccc(CN2CCN(c3nnc(NC(=O)Cc4ccccc4)s3)CC2)c1 |  | < 5.00 | < 5.00 |
| O=C(Cc1ccccc1)Nc1nnc(N2CCC(CCOCc3ccc(C(=O)NCC4CCN(Cc5cc(F)cc(F)c5)CC4)cc3)CC2)s1 | 6.92 | 5.72 | 6.10 |
| CC(C)CNC(=O)c1ccc(CN2CCN(c3nnc(NC(=O)Cc4ccccc4)s3)CC2)cc1 | 6.84 | 5.60 | 5.96 |
| CCCN1CCC(CNC(=O)c2cccc(COCCC3CCN(c4nnc(NC(=O)Cc5ccccc5)s4)CC3)c2)CC1 | 6.59 | 5.70 | 5.41 |
| CN1CCC(CNC(=O)c2cccc(COCCC3CCN(c4nnc(NC(=O)Cc5ccccc5)s4)CC3)c2)CC1 | 6.10 | 5.04 | 5.09 |
| CCCNC(=O)c1ccc(COC2CCN(c3nnc(NC(=O)Cc4ccccc4)s3)CC2)cc1 | 5.97 | 5.97 | 5.39 |
| CCN(CC)CCNC(=O)c1ccc(COCCC2CCN(c3nnc(NC(=O)Cc4ccccc4)s3)CC2)cc1 | 6.36 | 5.36 | 5.92 |
| O=C(Cc1ccccc1)Nc1nnc(N2CCC(CCOCc3cccc(C(=O)NCCN4CCCC4)c3)CC2)s1 | 6.31 | 5.01 | 5.05 |
| CN1CCC(CNC(=O)c2ccc(CN3CCN(c4nnc(NC(=O)Cc5ccccc5)s4)CC3)cc2)CC1 | < 5.00 | < 5.00 | < 5.00 |
